Where a name gives a salt, the structure may show the parent alone. Read-outs that look alike come from different tables or passages of the source.

Data set [1] addresses T1, human α-thrombin (Homo sapiens, UniProt P00734).
T1 construct: human α-thrombin
The data set is described as follows: Assay of thrombin activity (chromogenic substrate S-2238). The class given is biochemical. Conditions: for IC50: 10 min pre-incubation at 37° C, substrate S-2238; for Ki: Hanes-Woolf analysis, S-2238 concentration varied. On the procedure: Thrombin inhibitory activity was assessed by pre-incubating the test compound at a variety of concentrations with human α-thrombin at 37° C. After 10 min, the chromogenic substrate H-D-Phe-Pipecolinyl-Arg-ρ-nitroanilide (S-2238) was added to the mixture and the change in absorbance measured over the following 8 min.

The nature of data set [2]: Determination of bioavailability / pharmacokinetics in rats. Type of data set: in vivo. As to conditions: male, Wistar Ola, plasma, rat.
Test in data set [3]: as above
Type of data set: in vivo. As to conditions: male, Wistar Ola, plasma, rat, saline; for half-life: read-out: T½ (converted); for Vd: read-out: Vss. From the text:
Determination of Bioavailability of Compounds 1A, 2A and 3A in Rats
Male Wistar Ola rats (˜250 g). Food and water were available ad libitum throughout the studies.
For intravenous pharmacokinetic studies, catheters (Portex polythene—ID 0.58 mm, OD 0.96 mm with a tip made from SF Medical silicone tubing, SFM1-1350) were inserted into the right jugular vein under isoflurane anaesthesia. The tubing was exteriorised at the back of the neck, filled with heparinised saline (100 Um/ml) and stoppered. Animals were allowed a minimum of 48 h recovery before dosing.
Compounds 1A, 2A and 3A were administered orally (PO). Compounds 1B, 2B and 3B were administered intravenously (IV). Serial blood samples (for plasma) were taken from a lateral vein at points from 3 min to 24 hrs (terminal sample by cardiac puncture) according to a matrix design protocol (3 samples per time point). Plasma samples were stored at −20° C. until analysis.
Plasma samples were analyzed for the pertinent free acid thrombin derivatives 1B, 2B and 3B using an LC-MS method. Cmax (maximum plasma concentrations) and AUC values were determined from the mean plasma concentration—time profiles.
Noncompartmental pharmacokinetic analysis was performed using WinNonlin Professional 3.1 and 4.1.

Where [4] appears, read: PO 10 mg/kg of the free acid itself, saline.
The mark [5] stands for this setting: IV 5 mg/kg, mean of two studies.

In the case of `CCCOC(=O)CN[C@@H](C(=O)N1CCC[C@H]1C(=O)NCc1ccc2c(N)nccc2c1)C(c1ccccc1)c1ccccc1` [Compound 1A, N-(2-oxo-2-propoxyethyl)-β-phenyl-D-phenylalanyl-N-[(1-amino-6-isoquinolinyl)methyl]-L-prolinamide], in data set [1], the IC50 was determined as 13 nM and affinity was put at a Ki of 1 nM.
On to `Cl.Nc1nccc2cc(CNC(=O)[C@@H]3CCCN3C(=O)[C@H](NCC(=O)O)C(c3ccccc3)c3ccccc3)ccc12` [Compound 1B, N-(carboxymethyl)-β-phenyl-D-phenylalanyl-N-[(1-amino-6-isoquinolyl)methyl]-L-prolinamide hydrochloride], for which the bioavailability in data set [2] (PO 10 mg/kg of the free acid itself vs IV) came out at 1.3%. In data set [2] (setting [4]), the AUC was 119 ng·h/mL, the Cmax was determined as 35 ng/mL and the Tmax was 72 min. Besides, in data set [3] (setting [5]), the AUC turned out to be 4860 ng·h/mL, the clearance was found to be 17 mL/min/kg, the half-life is 19.2 min and the Vd came out at 0.48 L/kg. In data set [1], this molecule yielded an IC50 of 12.6 nM and a Ki of 0.9 nM.
Consider `CCCOC(=O)CN[C@H](Cc1ccccc1)C(=O)N1CCC[C@H]1C(=O)NCc1ccc2c(N)nccc2c1` [Compound 2A, N-(2-propoxy-2-oxoethyl)-D-phenylalanyl-N-[(1-amino-6-isoquinolyl)methyl]-L-prolinamide hydrochloride], for which, in data set [1], half-maximal inhibition (IC50) was put at 573 nM and the affinity corresponds to a Ki of 34.5 nM.
As for `Nc1nccc2cc(CNC(=O)[C@@H]3CCCN3C(=O)[C@@H](Cc3ccccc3)NCC(=O)O)ccc12` [Compound 2B, N-(carboxymethyl)-D-phenylalanyl-N-[(1-amino-6-isoquinolyl)methyl]-L-prolinamide trifluoroacetate], in data set [3] (IV 2 mg/kg), the AUC is 659 ng·h/mL, the clearance stood at 54 mL/min/kg, the half-life was 36.6 min and the Vd worked out at 2.4 L/kg.
In data set [1], `CCCOC(=O)CN[C@H](Cc1ccc(OC)cc1)C(=O)N1CCC[C@H]1C(=O)NCc1ccc2c(N)nccc2c1` [Compound 3A, N-(2-propoxy-2-oxoethyl)-O-methyl-D-tyrosinyl-N-[(1-amino-6-isoquinolyl)methyl]-L-prolinamide hydrochloride] gave an IC50 of 197 nM and an inhibition constant Ki of 1.8 nM.
As for `COc1ccc(C[C@@H](NCC(=O)O)C(=O)N2CCC[C@H]2C(=O)NCc2ccc3c(N)nccc3c2)cc1` [Compound 3B, N-(carboxymethyl)-O-methyl-D-tyrosinyl-N-[(1-amino-6-isoquinolyl)methyl]-L-prolinamide trifluoroacetate], in data set [3] (IV 2 mg/kg), the AUC is 1010 ng·h/mL, the clearance stood at 34 mL/min/kg, the half-life was 9.6 min and the Vd came to 0.46 L/kg. In data set [1], it took 358 nM to reach half-maximal inhibition (IC50) and the inhibitory constant (Ki) came to 5.4 nM.

A word on the IC50: it is the midpoint of a concentration-inhibition curve. Lower therefore signals inhibition by little substance. Usually Ki stands for a dissociation constant, usually derived from enzyme kinetics or from competition with a known ligand. Read a high Ki as a looser hold on the target. In general, bioavailability refers to the share of a dose that reaches the circulation, judged against a reference dose that is usually intravenous. As a reminder, the AUC is concentration integrated over time. For orientation: Cmax means the peak of the concentration-time curve. As usually defined, the Tmax is the time from dosing to the highest level. The term clearance denotes the rate of elimination divided by the concentration.

Values taken from patent US8299091B2, “Aminoisoquinoline thrombin inhibitor with improved bioavailability” (MSD Oss B.V., priority 2006, dated 2012).
